Results as given in patent publication US7846697B2, “Method of producing a low molecular weight organic compound in a cell” (BLMaps, priority 2003, dated 2010).

Tests used:
[1] = tested on: E. coli strain JM109 transformants; assay: Toxicity of vanillin with IPTG-induced expression of UGT85B1 or AS, growth on plates; format: cell-based; conditions: JM109 [pJH410], IPTG induction No; note: key: −: No growth; +: weak growth; ++: good growth
[2] = tested on: microorganisms; conditions: Pfeifer et al, 1984; cited from earlier work
[3] = tested on: E. coli strain TOP10; assay: Vanillin sensitivity (STV) on solid LB growth medium; format: cell-based; conditions: no growth at 1/10000 dilution, growth at 1/100 severely inhibited, 24 hours
Procedure: (§1) The three different E. coli strains TOP10, JM109, and KO1418 were grown for 18 hours in the appropriate media, after which serial dilutions in growth medium (dilution factors 1, 1/100, 1/10000 and 1/1000000) were made. Droplets of these cell suspensions were applied to Petri dishes containing solid LB growth medium with various concentrations of vanillin, and the plates were incubated at the appropriate growth temperature for 24 hours (E. coli), after which they were photographed. […] This number constituted the STV (Sensitivity To Vanillin) level. The STV numbers for the different microorganisms studied can be seen in Table 9.1.

[4] = tested on: E. coli strain JM109; assay: as above; format: cell-based; conditions: no growth at 1/10000 dilution, growth at 1/100 severely inhibited, 24 hours
Procedure: as §1

[5] = tested on: E. coli strain KO1418; assay: as above; format: cell-based; conditions: no growth at 1/10000 dilution, growth at 1/100 severely inhibited, 24 hours
Procedure: as §1

[6] = tested on: E. coli strain KO1418 transformants; assay: Toxicity of vanillin with IPTG-induced expression of UGT85B1 or AS, growth on plates; format: cell-based; note: key: −: No growth; +: weak growth; ++: good growth
Procedure: The E. coli strains TOP10, JM109, and KO1418 were all transformed with the constructed plasmids pJH401, pJH402, pJH411 and pJH412, and pKK223-3 as control, employing standard transformation protocols. Transformants were selected for ampicilin resistance, and two transformants of each E. coli strain with each plasmid were kept for expression experiments. The E. coli transformants were inoculated from plate cultures into 2 ml liquid growth medium (LB medium containing ampicilin at 100 μg/ml), and allowed to grow for 20 hours at 37° C. The precultures were diluted 100 times 10^4 times and 10^6 times in growth medium, and 4 μl droplets of these cell suspensions were applied to the surface of Petri dishes containing solid LB-ampicilin medium containing varying concentrations of vanillin (based on the STV determinations described above), and without or with (to induce gene expression) 1 mM isopropyl thiogalactoside (IPTG). The plates were incubated at 37° C. for 24 hours, after which growth on the various concentrations of vanillin was monitored and recorded.

[7] = tested on: E. coli strain KO1418 transformants; assay: Toxicity of vanillin with constitutive expression of UGT85B1 or AS, growth on plates; format: cell-based
Source text: (§2) For experimentation with constitutive expression of UGT85B1 and AS, the E. coli strains JM109, and K01418 were transformed with the constructed plasmids pJH 430, pJH431, pJH432, pJH433, pJH434, pJH435, pJH436, pJH437, pJH438, pJH439, pJH440, and pJH441, and pKOL30 as control, employing standard transformation protocols. Transformants were selected for ampicilin resistance, and two transformants of each E. coli strain with each plasmid were kept for expression experiments. The E. coli transformants were inoculated from plate cultures into 2 ml liquid growth medium (LB medium containing ampicilin at 100 μg/ml), and allowed to grow for 20 hours at 37° C. The precultures were diluted 100 times 10^4 times and 10^6 times in growth medium, and 4 μl droplets of these cell suspensions were applied to the surface of Petri dishes containing solid LB-ampicilin medium containing varying concentrations of vanillin (based on the STV determinations described above). The plates were incubated at 37° C. for 24 hours, after which growth on the various concentrations of vanillin was monitored and recorded.

[8] = tested on: E. coli strain JM109 transformants; assay: as above; format: cell-based
Source text: as §2

Question: For COc1cc(C=O)ccc1O [Vanillin, vanillin], which growth ([1]; 0.08% vanillin) is on record?
Answer: Its growth is “++”.

Question: What about the growth ([1]; 0.2% vanillin) of the same compound?
Answer: The growth was “−”.

Question: What about the “concentration in the medium at which it acts as a strong growth inhibitor” value [2] of the same compound?
Answer: Its value is 5 g/L.

Question: And the “STV (Sensitivity To Vanillin) level” value [3]?
Answer: Its value is 0.12 % (w/v).

Question: And the “STV (Sensitivity To Vanillin) level” value [4]?
Answer: Its value is 0.14 % (w/v).

Question: What about the “STV (Sensitivity To Vanillin) level” value [5] of the same compound?
Answer: The value was 0.18 % (w/v).

Question: What about the growth ([6]; KO1418 [pJH401], 0.08% vanillin, IPTG induction No) of the same compound?
Answer: Its growth is “++”.

Question: And the growth ([6]; KO1418 [pJH401], 0.08% vanillin, IPTG induction Yes)?
Answer: Its growth is “++”.

Question: What about the growth ([6]; KO1418 [pJH401], 0.12% vanillin, IPTG induction No) of the same compound?
Answer: The growth was “++”.

Question: And the growth ([6]; KO1418 [pJH401], 0.12% vanillin, IPTG induction Yes)?
Answer: Its growth is “++”.

Question: And the growth ([6]; KO1418 [pJH401], 0.16% vanillin, IPTG induction No)?
Answer: The growth was “−”.

Question: And the growth ([6]; KO1418 [pJH401], 0.16% vanillin, IPTG induction Yes)?
Answer: The growth was “++”.

Question: What about the growth ([6]; KO1418 [pJH401], 0.2% vanillin, IPTG induction No) of the same compound?
Answer: The growth was “−”.

Question: What about the growth ([6]; KO1418 [pJH401], 0.2% vanillin, IPTG induction Yes) of the same compound?
Answer: Its growth is “−”.

Question: And the growth ([6]; KO1418 [pJH402], 0.08% vanillin, IPTG induction No)?
Answer: The growth was “++”.

Question: What about the growth ([6]; KO1418 [pJH402], 0.08% vanillin, IPTG induction Yes) of the same compound?
Answer: Its growth is “++”.

Question: What about the growth ([6]; KO1418 [pJH402], 0.12% vanillin, IPTG induction No) of the same compound?
Answer: The growth was “++”.

Question: What about the growth ([6]; KO1418 [pJH402], 0.12% vanillin, IPTG induction Yes) of the same compound?
Answer: Its growth is “++”.

Question: What about the growth ([6]; KO1418 [pJH402], 0.16% vanillin, IPTG induction No) of the same compound?
Answer: The growth was “+”.

Question: And the growth ([6]; KO1418 [pJH402], 0.16% vanillin, IPTG induction Yes)?
Answer: The growth was “++”.

Question: And the growth ([6]; KO1418 [pJH402], 0.2% vanillin, IPTG induction No)?
Answer: The growth was “−”.

Question: What about the growth ([6]; KO1418 [pJH402], 0.2% vanillin, IPTG induction Yes) of the same compound?
Answer: Its growth is “−”.

Question: What about the growth ([6]; KO1418 [pJH410], 0.08% vanillin, IPTG induction No) of the same compound?
Answer: Its growth is “++”.

Question: What about the growth ([6]; KO1418 [pJH410], 0.12% vanillin, IPTG induction Yes) of the same compound?
Answer: The growth was “++”.

Question: What about the growth ([6]; KO1418 [pJH410], 0.16% vanillin, IPTG induction No) of the same compound?
Answer: The growth was “++”.

Question: And the growth ([6]; KO1418 [pJH410], 0.16% vanillin, IPTG induction Yes)?
Answer: The growth was “++”.

Question: What about the growth ([6]; KO1418 [pJH410], 0.2% vanillin, IPTG induction No) of the same compound?
Answer: Its growth is “−”.

Question: And the growth ([6]; KO1418 [pKK223-3], 0.08% vanillin, IPTG induction No)?
Answer: The growth was “++”.

Question: And the growth ([6]; KO1418 [pKK223-3], 0.08% vanillin, IPTG induction Yes)?
Answer: Its growth is “++”.

Question: What about the growth ([6]; KO1418 [pKK223-3], 0.12% vanillin, IPTG induction No) of the same compound?
Answer: Its growth is “++”.

Question: What about the growth ([6]; KO1418 [pKK223-3], 0.12% vanillin, IPTG induction Yes) of the same compound?
Answer: The growth was “++”.

Question: And the growth ([6]; KO1418 [pKK223-3], 0.16% vanillin, IPTG induction No)?
Answer: Its growth is “−”.

Question: What about the growth ([6]; KO1418 [pKK223-3], 0.16% vanillin, IPTG induction Yes) of the same compound?
Answer: Its growth is “++”.

Question: And the growth ([6]; KO1418 [pKK223-3], 0.2% vanillin, IPTG induction No)?
Answer: The growth was “−”.

Question: And the growth ([6]; KO1418 [pKK223-3], 0.2% vanillin, IPTG induction Yes)?
Answer: The growth was “−”.

Question: And the growth ([7]; KO1418 [pJH430], 0.08% vanillin)?
Answer: The growth was “+++”.

Question: What about the growth ([7]; KO1418 [pJH430], 0.12% vanillin) of the same compound?
Answer: The growth was “+++”.

Question: What about the growth ([7]; KO1418 [pJH430], 0.16% vanillin) of the same compound?
Answer: Its growth is “+++”.

Question: What about the growth ([7]; KO1418 [pJH431], 0.08% vanillin) of the same compound?
Answer: The growth was “+++”.

Question: What about the growth ([7]; KO1418 [pJH431], 0.12% vanillin) of the same compound?
Answer: Its growth is “+++”.

Question: And the growth ([7]; KO1418 [pJH431], 0.16% vanillin)?
Answer: The growth was “+++”.

Question: What about the growth ([7]; KO1418 [pJH432], 0.08% vanillin) of the same compound?
Answer: The growth was “+++”.

Question: And the growth ([7]; KO1418 [pJH432], 0.12% vanillin)?
Answer: The growth was “+++”.

Question: And the growth ([7]; KO1418 [pJH432], 0.16% vanillin)?
Answer: The growth was “+”.

Question: And the growth ([7]; KO1418 [pJH433], 0.08% vanillin)?
Answer: The growth was “+++”.

Question: And the growth ([7]; KO1418 [pJH433], 0.12% vanillin)?
Answer: Its growth is “+++”.

Question: And the growth ([7]; KO1418 [pJH433], 0.16% vanillin)?
Answer: The growth was “+++”.

Question: And the growth ([7]; KO1418 [pKOL30], 0.08% vanillin)?
Answer: Its growth is “+++”.

Question: And the growth ([7]; KO1418 [pKOL30], 0.12% vanillin)?
Answer: Its growth is “++”.

Question: And the growth ([7]; KO1418 [pKOL30], 0.16% vanillin)?
Answer: Its growth is “+”.

Question: What about the growth ([8]; JM109 [pJH430], 0.08% vanillin) of the same compound?
Answer: The growth was “+++”.

Question: And the growth ([8]; JM109 [pJH430], 0.12% vanillin)?
Answer: Its growth is “+++”.

Question: And the growth ([8]; JM109 [pJH430], 0.16% vanillin)?
Answer: Its growth is “++”.

Question: What about the growth ([8]; JM109 [pJH431], 0.08% vanillin) of the same compound?
Answer: Its growth is “+++”.

Question: And the growth ([8]; JM109 [pJH431], 0.12% vanillin)?
Answer: The growth was “+++”.

Question: What about the growth ([8]; JM109 [pJH431], 0.16% vanillin) of the same compound?
Answer: The growth was “++”.

Question: What about the growth ([8]; JM109 [pJH432], 0.08% vanillin) of the same compound?
Answer: The growth was “+++”.

Question: What about the growth ([8]; JM109 [pJH432], 0.12% vanillin) of the same compound?
Answer: The growth was “+++”.

Question: And the growth ([8]; JM109 [pJH432], 0.16% vanillin)?
Answer: The growth was “+”.

Question: What about the growth ([8]; JM109 [pJH433], 0.08% vanillin) of the same compound?
Answer: Its growth is “+++”.

Question: What about the growth ([8]; JM109 [pJH433], 0.12% vanillin) of the same compound?
Answer: Its growth is “+++”.

Question: And the growth ([8]; JM109 [pJH433], 0.16% vanillin)?
Answer: Its growth is “+”.

Question: And the growth ([8]; JM109 [pKOL30], 0.08% vanillin)?
Answer: The growth was “+++”.

Question: What about the growth ([8]; JM109 [pKOL30], 0.12% vanillin) of the same compound?
Answer: The growth was “++”.

Question: What about the growth ([8]; JM109 [pKOL30], 0.16% vanillin) of the same compound?
Answer: Its growth is “−”.
